In ChEMBL document CHEMBL1201862, “PubChem BioAssay data set” (2004):
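Compound exposure: 48 hours, 5 concentrations, 96-well plates. Here, GI50 denotes the concentration required for 50% inhibition of growth.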 Active and inactive are the calls of the source. No stated cut-off is given here; in the data, active = GI50 up to about 1.1 µM and inactive = higher.

Columns and labels:
Assay in all cases: DTP human tumour cell line panel, 48 h
[1] = tested on: OVCAR-8
[2] = tested on: SNB-19
[3] = tested on: SK-OV-3
[4] = tested on: MDA-MB-231
[5] = tested on: MOLT-4
[6] = tested on: NCI-H460
[7] = tested on: RXF 393
[8] = tested on: EKVX
[9] = tested on: T47D
[10] = tested on: A549
[11] = tested on: SNB-75
[12] = tested on: KM12
[13] = tested on: HOP-92
[14] = tested on: SK-MEL-2
[15] = tested on: PC-3
[16] = tested on: SK-MEL-5
[17] = tested on: MDA-MB-435
[18] = tested on: U-251
[19] = tested on: CAKI-1
[20] = tested on: MCF7

Measured: GI50

O=c1c(-c2ccccc2Cl)coc2cc(F)ccc12
inactive: [1] 33.7 µM | [2] 22.9 µM | [3] 45.2 µM | [4] 19.4 µM | [5] 22 µM | [6] 37.6 µM | [7] 22.1 µM | [8] 52.6 µM | [9] 45.1 µM | [10] 23.7 µM | [11] 17.5 µM | [12] 21.5 µM | [13] 18.6 µM | [14] 66.4 µM | [15] > 100 µM | [16] 27.3 µM | [17] 2.1 µM | [18] 10.2 µM | [19] 29.1 µM | [20] 21.7 µM

CC/C=C/C(/C=C/C[C@]1(CC)C[C@H](CC)[C@H](CC(=O)O)OO1)CC (stereo not given in full)
inactive: [1] 2.9 µM | [2] 5.69 µM | [3] 4.23 µM | [4] 4.88 µM | [5] 2.31 µM | [6] 1.96 µM | [7] 2.19 µM | [8] 1.76 µM | [9] 2.75 µM | [10] 1.68 µM | [11] 6.41 µM | [12] 1.62 µM | [13] 1.99 µM | [14] 4.01 µM | [15] 1.67 µM | [16] 2.85 µM | [17] 2.06 µM | [18] 1.62 µM | [19] 1.96 µM | [20] 2.51 µM

C=CC1(CC[C@]2(c3ccc(OC)c(OC)c3)C=[N+]([O-])O[C@H](O[C@@H]3CCCC[C@H]3C(C)(C)c3ccccc3)C2)OCC(C)(C)CO1
inactive: [1] 7.64 µM | [2] 21.9 µM | [3] > 44.1 µM | [4] 13.5 µM | [5] 3.78 µM | [6] 16.5 µM | [7] 12.4 µM | [8] 12.7 µM | [9] 11.6 µM | [10] 14.6 µM | [11] 9.62 µM | [12] 14.3 µM | [13] 13.5 µM | [14] 12.6 µM | [15] 7.23 µM | [16] 14.7 µM | [17] 11.5 µM | [18] 20 µM | [19] 6.95 µM | [20] 3.65 µM

CCOC(=O)c1cc(-n2nnc3ccccc32)cn1C
inactive: [1] > 10 µM | [2] > 10 µM | [3] > 10 µM | [4] > 10 µM | [5] > 10 µM | [6] > 10 µM | [7] > 10 µM | [8] > 10 µM | [9] > 10 µM | [10] > 10 µM | [11] 8.59 µM | [12] > 10 µM | [13] > 10 µM | [14] > 10 µM | [15] > 10 µM | [16] > 10 µM | [17] > 10 µM | [18] > 10 µM | [19] > 10 µM | [20] > 10 µM

CCOP(=O)(OCC)/C(C#N)=C/c1cccn1C(C)C
inactive: [1] > 100 µM | [2] > 100 µM | [3] > 100 µM | [4] > 100 µM | [5] > 100 µM | [6] > 100 µM | [7] > 100 µM | [8] > 100 µM | [9] > 100 µM | [10] > 100 µM | [11] > 100 µM | [12] > 100 µM | [13] > 100 µM | [14] > 100 µM | [15] > 100 µM | [16] > 100 µM | [17] > 100 µM | [18] > 100 µM | [19] > 100 µM | [20] > 10 µM

Nc1ccccc1.O=C(O)C(C(F)(F)F)C(F)(F)F
inactive: [1] > 100 µM | [2] > 100 µM | [3] > 100 µM | [4] > 100 µM | [5] > 100 µM | [6] > 100 µM | [7] > 100 µM | [8] > 100 µM | [9] > 100 µM | [10] > 100 µM | [11] > 100 µM | [12] 71.8 µM | [13] > 100 µM | [14] > 100 µM | [15] > 100 µM | [16] > 100 µM | [17] > 100 µM | [18] > 100 µM | [19] 34 µM | [20] > 100 µM

COc1cc2cc(C(=O)N3CC(CCl)c4c3cc([N+](=O)[O-])c3ccccc43)[nH]c2c(OC)c1OC (stereo not given)
inactive: [1] 12.8 µM | [2] 87.7 µM | [3] > 48.5 µM | [4] > 100 µM | [5] 13.8 µM | [6] 4.68 µM | [7] > 89.3 µM | [8] 16.7 µM | [9] > 66.8 µM | [10] 1.8 µM | [11] 31.8 µM | [12] > 62.8 µM | [13] > 70.1 µM | [14] > 100 µM | [15] 10.9 µM | [16] 29.6 µM | [17] > 100 µM | [18] 25.8 µM | [19] 39.4 µM | [20] 17.3 µM
